The text below walks through data of patent US20190330226A1, “POSITIVE ALLOSTERIC MODULATORS OF THE MUSCARINIC ACETYLCHOLINE RECEPTOR M1” (Vanderbilt University, priority 2018, published 2019).

The structures appear in SMILES notation.

For the assay, the target named is T1, human mAChR M1 (Homo sapiens, UniProt P11229).
T1 construct: host or cells: CHO-K1 (ATCC), stably transfected using Lipofectamine 2000
T1 sequence (P11229 1-460): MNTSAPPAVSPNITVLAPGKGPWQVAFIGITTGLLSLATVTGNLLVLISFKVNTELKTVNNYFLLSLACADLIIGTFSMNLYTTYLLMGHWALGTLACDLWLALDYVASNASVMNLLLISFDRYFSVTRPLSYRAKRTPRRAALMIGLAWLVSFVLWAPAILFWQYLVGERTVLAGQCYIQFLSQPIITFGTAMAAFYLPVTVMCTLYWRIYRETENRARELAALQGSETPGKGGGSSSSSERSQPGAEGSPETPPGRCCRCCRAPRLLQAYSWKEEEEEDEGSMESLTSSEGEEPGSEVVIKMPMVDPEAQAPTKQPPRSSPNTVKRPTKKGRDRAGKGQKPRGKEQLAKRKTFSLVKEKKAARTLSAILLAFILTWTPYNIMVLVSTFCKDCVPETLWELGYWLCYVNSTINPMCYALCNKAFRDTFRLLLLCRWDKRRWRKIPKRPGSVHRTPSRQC
Nature of the assay: mAChR M1 cell-based functional assay (calcium mobilization, Fluo-4, FDSS). The note with it: CHO-K1 cells stably expressing hM1, calcium flux; for Emax: PAM mode with EC20 acetylcholine; for EC50: concentration-dependent increase in the EC20 acetylcholine response. The source says: Chinese hamster ovary (CHO-K1) cells stably expressing rat (r)M1 were purchased from the American Type Culture Collection and cultured according to their indicated protocol. CHO cells stably expressing human (h)M2, hM3, and hM5 were described previously (Levey, et al., 1991); hM1 and hM4 cDNAs were purchased from Missouri S&T cDNA Resource; rM4 cDNA was provided by T. I. Bonner (National Institutes of Health, Bethesda, Md.). rM2 and rM3 were cloned from a rat brain cDNA library and sequence verified. hM1, rM2, rM3, hM4, and rM4 cDNAs were used to stably transfect CHO-K1 cells purchased from the American Type Culture Collection using Lipofectamine 2000. To make stable rM2, hM2, rM3, hM4, and rM4 cell lines for use in calcium mobilization assays, these cells also were stably transfected with a chimeric G-protein (Gqi5) (provided by B. R. Conklin, University of California, San Francisco) using Lipofectamine 2000. rM1, hM1, rM3, hM3, rM5, and hM5 cells were grown in Ham's F-12 medium containing 10% heat-inactivated fetal bovine serum (FBS), 20 mM HEPES, and 50 µg/mL G418 sulfate. rM2-Gqi5, hM2-Gqi5, and hM4-Gqi5 cells were grown in the same medium also containing 500 μg/mL Hygromycin B. Stable rM4-Gqi5 cells were grown in DMEM containing 10% heat-inactivated FBS, 20 mM HEPES, 400 μg/mL G418 sulfate, and 500 μg/mL Hygromycin B.
For high throughput measurement of agonist-evoked increases in intracellular calcium, CHO-K1 cells stably expressing muscarinic receptors were plated in growth medium lacking G418 and hygromycin at 15,000 cells/20 μL/well in Greiner 384-well black-walled, tissue culture (TC)-treated, clear-bottom plates (VWR). Cells were incubated overnight at 37° C. and 5% CO2. The next day, cells were washed using an ELX 405 (BioTek) with four washes ([…]) of assay buffer then aspirated to 20 μL. Next, 20 μL of 16 μM Fluo-4/acetoxymethyl ester (Invitrogen, Carlsbad, Calif.) prepared as a 2.3 mM stock in DMSO and mixed in a 1:1 ratio with 10% (w/v) Pluronic F-127 and diluted in assay buffer was added to the wells and the cell plates were incubated for 50 min at 37° C. and 5% CO2. Dye was removed by washing with the ELX 405 (four 80 μL washes of assay buffer) then aspirated to 20 μL. Compound master plates were formatted in an 11 point CRC format (1:3 dilutions) in 100% DMSO with a starting concentration of 10 mM using the BRAVO liquid handler (Agilent). Test compound CRCs were then transferred to daughter plates (240 nL) using the Echo acoustic plate reformatter (Labcyte, Sunnyvale, Calif.) and then diluted into assay buffer (40 μL) to a 2× stock using a Thermo Fisher Combi (Thermo Fisher Scientific, Waltham, Mass.).
Calcium flux was measured using the Functional Drug Screening System (FDSS) 6000 (Hamamatsu Corporation, Tokyo, Japan) as an increase in the fluorescent static ratio. Compounds were applied to cells (20 μL, 2×) using the automated system of the FDSS 6000 at 4 s into the 300 s protocol and the data were collected at 1 Hz. At 144 s into the 300s protocol, 10 μL of an EC20 concentration of the muscarinic receptor agonist acetylcholine was added (5×), followed by the addition of 12 μL an EC80 concentration of acetylcholine at the 230 s time point (5×). Agonist activity was analyzed as a concentration-dependent increase in calcium mobilization upon compound addition. Positive allosteric modulator activity was analyzed as a concentration-dependent increase in the EC20 acetylcholine response. Antagonist activity was analyzed as a concentration-dependent decrease in the EC80 acetylcholine response. Concentration-response curves were generated using a four-parameter logistical equation in XLfit curve fitting software (IDBS, Bridgewater, N.J.) for Excel (Microsoft, Redmond, Wash.) or Prism (GraphPad Software, Inc., San Diego, Calif.).
Activity (EC50 and Emax) was determined in the mAChR M1 cell-based functional assay as described above and the data are shown in Table 2. […]
For orientation: Calcium flux is commonly read through the fluorescence of an indicator in the cells.

Broadly, the Emax is the greatest response seen or fitted, relative to the assay's reference. Turning to `O=C1c2scnc2CN1Cc1c(F)cc(-c2ccc3nccn3c2)cc1F` [Compound 15, 5-(2,6-difluoro-4-(imidazo[1,2-a]pyridin-6-yl)benzyl)-4,5-dihydro-6H-pyrrolo[3,4-d]thiazol-6-one], the Emax came to 55%.

In general, EC50 refers to the concentration that produces a half-maximal response. Turning to `Cn1cc2cccc(-c3cc(F)c(CN4Cc5cnn(CC6CCCO6)c5C4=O)c(F)c3)c2n1` (centres unmarked) [Compound 38, 5-(2,6-difluoro-4-(2-methyl-2H-indazol-7-yl)benzyl)-1-((tetrahydrofuran-2-yl)methyl)-4,5-dihydropyrrolo[3,4-c]pyrazol-6(1H)-one], the Emax was determined as 66% and the EC50 is 6890 nM.

In the case of `Cn1cc2c(-c3cc(F)c(CN4Cc5occc5C4=O)c(F)c3)cccc2n1` [Compound 56, 5-(2,6-difluoro-4-(2-methyl-2H-indazol-4-yl)benzyl)-5,6-dihydro-4H-furo[2,3-c]pyrrol-4-one], the Emax was found to be 80% and the EC50 was 3600 nM.

For `Cn1cc2c(-c3cc(F)c(CN4Cc5ccn(CCCO)c5C4=O)c(F)c3)cccc2n1` [Compound 54, 5-(2,6-difluoro-4-(2-methyl-2H-indazol-4-yl)benzyl)-1-(3-hydroxypropyl)-4,5-dihydropyrrolo[3,4-b]pyrrol-6(1H)-one], the Emax amounted to 69% and the EC50 amounted to 5580 nM.

For the compound `Cn1cc(-c2cc(F)c(CN3Cc4ccn(CC5CCCO5)c4C3=O)c(F)c2)cn1` (centres unmarked) [Compound 50, 5-(2,6-difluoro-4-(1-methyl-1H-pyrazol-4-yl)benzyl)-1-((tetrahydrofuran-2-yl)methyl)-4,5-dihydropyrrolo[3,4-b]pyrrol-6(1H)-one], the Emax stood at 38% and the half-maximal effective concentration (EC50) was determined as 3440 nM.

`Cc1ccc(-c2cc(F)c(CN3Cc4ncsc4C3=O)c(F)c2)cn1` [Compound 23, 5-(2,6-difluoro-4-(6-methylpyridin-3-yl)benzyl)-4,5-dihydro-6H-pyrrolo[3,4-d]thiazol-6-one]: the maximal effect (Emax) was 27%.

Take `Cn1cc2c(-c3cc(F)c(CN4Cc5ccsc5C4=O)c(F)c3)cccc2n1` [Compound 2, 5-(2,6-difluoro-4-(2-methyl-2H-indazol-4-yl)benzyl)-4,5-dihydro-6H-thieno[2,3-c]pyrrol-6-one]: the Emax is 70% and the EC50 was found to be 1260 nM.

For `Cn1cc2c(-c3cc(F)c(CN4Cc5cn(Cc6ccccn6)nc5C4=O)c(F)c3)cccc2n1` [Compound 7, 5-(2,6-difluoro-4-(2-methyl-2H-indazol-4-yl)benzyl)-2-(pyridin-2-ylmethyl)-4,5-dihydropyrrolo[3,4-c]pyrazol-6(2H)-one], the maximum response (Emax) was determined as 46%.

Consider `Cn1cc2c(-c3cc(F)c(CN4Cc5ncsc5C4=O)c(F)c3)cccc2n1` [Compound 5, 5-(2,6-difluoro-4-(2-methyl-2H-indazol-4-yl)benzyl)-4,5-dihydro-6H-pyrrolo[3,4-d]thiazol-6-one], for which the maximum response (Emax) came to 73%.

For the compound `Cn1cc2cc(-c3cc(F)c(CN4Cc5sccc5C4=O)c(F)c3)ccc2n1` [Compound 26, 5-(2,6-difluoro-4-(2-methyl-2H-indazol-5-yl)benzyl)-5,6-dihydro-4H-thieno[2,3-c]pyrrol-4-one], the Emax was found to be 59% and the EC50 amounted to 1020 nM.

In the case of `Cn1cc(-c2cc(F)c(CN3Cc4ncsc4C3=O)c(F)c2)cn1` [Compound 14, 5-(2,6-difluoro-4-(1-methyl-1H-pyrazol-4-yl)benzyl)-4,5-dihydro-6H-pyrrolo[3,4-d]thiazol-6-one], the maximal response (Emax) turned out to be 40%.

Consider `Cn1cc2c(-c3cc(F)c(CN4Cc5nc[nH]c5C4=O)c(F)c3)cccc2n1` [Compound 3, 5-(2,6-difluoro-4-(2-methyl-2H-indazol-4-yl)benzyl)-5,6-dihydropyrrolo[3,4-d]imidazol-4(3H)-one], for which the Emax worked out at 78%.

Turning to `Cn1cc2c(-c3cc(F)c(CN4Cc5ccn(CC6CCOCC6)c5C4=O)c(F)c3)cccc2n1` [Compound 55, 5-(2,6-difluoro-4-(2-methyl-2H-indazol-4-yl)benzyl)-1-((tetrahydro-2H-pyran-4-yl)methyl)-4,5-dihydropyrrolo[3,4-b]pyrrol-6(1H)-one], the maximal response (Emax) stood at 59% and the concentration giving a half-maximal response (EC50) is 8980 nM.

As for `Cn1cc2c(-c3cc(F)c(CN4Cc5ccn(C)c5C4=O)c(F)c3)cccc2n1` [Compound 4, 5-(2,6-difluoro-4-(2-methyl-2H-indazol-4-yl)benzyl)-1-methyl-4,5-dihydropyrrolo[3,4-b]pyrrol-6(1H)-one], the maximal response (Emax) was determined as 36% and the EC50 was found to be 1880 nM.

With `Cc1nn(C)cc1-c1cc(F)c(CN2Cc3occc3C2=O)c(F)c1` [Compound 59, 5-(4-(1,3-dimethyl-1H-pyrazol-4-yl)-2,6-difluorobenzyl)-5,6-dihydro-4H-furo[2,3-c]pyrrol-4-one], the maximum response (Emax) was 90%.

On to `Cn1cc2cc(-c3cc(F)c(CN4Cc5scc(Br)c5C4=O)c(F)c3)ccc2n1` [Compound 33, 3-bromo-5-(2,6-difluoro-4-(2-methyl-2H-indazol-5-yl)benzyl)-5,6-dihydro-4H-thieno[2,3-c]pyrrol-4-one], for which the Emax was determined as 56% and the EC50 was determined as 2230 nM.

Consider `O=C1c2ccsc2CN1Cc1ccc(-c2cscn2)cc1` [Compound 47, 5-(4-(thiazol-4-yl)benzyl)-5,6-dihydro-4H-thieno[2,3-c]pyrrol-4-one], for which the Emax was 30%.

Consider `Cn1cc2cc(-c3cc(F)c(CN4Cc5cnn(CC6CCCO6)c5C4=O)c(F)c3)ccc2n1` (centres unmarked) [Compound 36, 5-(2,6-difluoro-4-(2-methyl-2H-indazol-5-yl)benzyl)-1-((tetrahydrofuran-2-yl)methyl)-4,5-dihydropyrrolo[3,4-c]pyrazol-6(1H)-one], for which the Emax came to 82% and the EC50 worked out at 1480 nM.

`Cn1cc2cc(-c3cc(F)c(CN4Cc5occc5C4=O)c(F)c3)ccc2n1` [Compound 57, 5-(2,6-difluoro-4-(2-methyl-2H-indazol-5-yl)benzyl)-5,6-dihydro-4H-furo[2,3-c]pyrrol-4-one]: the Emax came out at 42% and the EC50 was 990 nM.

On to `COCCn1cc2c(n1)C(=O)N(Cc1c(F)cc(-c3cccc4nn(C)cc34)cc1F)C2` [Compound 19, 5-(2,6-difluoro-4-(2-methyl-2H-indazol-4-yl)benzyl)-2-(2-methoxyethyl)-4,5-dihydropyrrolo[3,4-c]pyrazol-6(2H)-one], for which the Emax worked out at 45%.

For `CCn1ccc2c1C(=O)N(Cc1c(F)cc(-c3cccc4nn(C)cc34)cc1F)C2` [Compound 53, 5-(2,6-difluoro-4-(2-methyl-2H-indazol-4-yl)benzyl)-1-ethyl-4,5-dihydropyrrolo[3,4-b]pyrrol-6(1H)-one], the Emax worked out at 63%.
